This is an account of results in patent US8048872B2, “Treatment of hyperproliferative diseases with vinca alkaloid N-oxide and analogs” (Stat of Oregon Acting by and Through The Oregon State Board …, priority 2006, dated 2011).

In general, IC50 refers to the concentration that inhibits the measured activity by half.

Where “and” joins values, the source holds several entries; their conditions need not be identical. Identical values can stand only once. Like-named read-outs stand apart in the source and are kept apart here.

The conditions of data set [1]: cited from earlier work.
In data set [2] the test system is metastatic cancer of the colon or rectum. Conditions: 350 mg/m^2 30-minute iv infusion once every 3 weeks; 132 previously treated patients; cited from earlier work.
The test system of data set [3] is human HT29 colorectal adenocarcinoma. The arrangement: species or system mouse. Particulars: in vivo, ip, 100 mg/kg.
Data set [4] relates to murine P388 leukemic tumor cells. In words: in vivo. Particulars: P388. On the procedure:
(§1) For example, B6D2F1 mice (n=8/group) were inoculated subcutaneously (sc) in the right flank with 1×10^6 murine L1210 leukemic tumor cells. […] Test agents were administered on multiple treatment regimen (q3d×5) to yield optimal dose schedule benefit. Vehicle control treated mice served as the negative control group; mice treated with the bioreduced parent compounds, vincristine and vinblastine, dosed at their […] (MTDs), served as the positive control groups. Tumors were measured with calipers twice weekly and tumor volume calculated using the formula: Tumor Volume (mm^3)=((width)^2×length)/2. Animals were monitored for signs of toxicity and weighed daily for the first 5 days of the study and then twice-weekly until the study end. As pre-defined in the protocol, each animal was actively euthanized when its tumor reached the pre-determined endpoint size of 2000 mm^3 or at the conclusion of the study (day 37) whichever came first. The time to endpoint (TTE) was calculated for each mouse as TTE (days)=(log10(endpoint volume mm^3)−b)/m where b is the intercept and m is the slope of the line obtained by linear regression of a log-transformed tumor growth data set. Treatment outcome was determined from tumor growth delay (TGD) which is defined as the increase in median TTE in a treatment (T) group as compared to the control (C) group (TGD=T−C) expressed in days or as a percentage of the median TTE of the control group % TGD=((T−C)/C)×100. […] Statistical significance between the treated vs. control groups was evaluated by logrank analysis.
(§2) This model was developed by subcutaneously inoculating B6D2F1 mice (n=8/group) with 1×10^6 murine P388 leukemic tumor cells using similar methodology to that described above for L1210. […] Agents were administered on multiple treatment regimen (q3d×5) to yield optimal dose schedule benefit. Efficacy of treatment with the N-oxide analogs was determined by Tumor Growth Delay (TGD) and Kaplan-Meier survival analysis as described for L1210, the exception being that the conclusion of the study was day 45 or the predefined endpoint size of 2000 mm^3 whichever came first. Vehicle control treated mice served as the negative control group; mice treated with the standard agents, vincristine and vinblastine, dosed at their MTDs, served as the positive control groups.

The subject of data set [5] is murine L1210 leukemic tumor cells. In words: in vivo. Particulars: L1210. The method, then: as §1
Data set [6] is described as follows: in vivo. Particulars: B6D2F1, mouse, in vivo, iv. On the procedure: as §1
For data set [7], the system named is human H460 lung adenocarcinoma. In words: cells. Particulars: NCI-H460, 14 h.
Method: (§3) Tumor cell line were cultured in DMEM-10% FBS under standard conditions. One-hundred mm plastic culture dishes were seeded with 1×10^6 tumor cells and treated with vinca alkaloids or N-oxide analogs at a dose range of 0.01-100 nM. Cells were exposed with gentle rocking to a constant level of low oxygen (0.2% O2-5% CO2-balance N2) in a hypoxia apparatus (INVIVO2400 Hypoxia Workstation, Ruskin Technology) for 14 hr at 37° C. Identically treated cells were incubated under normoxia (air-5% CO2) at 37° C. Cells were harvested and replated in fresh medium at a density of 1×10^3 cells/well in 48-well plastic culture plates to assess viability 24-72 hr later. Briefly, Alamar Blue was added to replicate wells on Day 0 and Day 3, and cells were incubated for a further 3-6 hr at 37° C. before fluorescence readings using a plate reader (530-560 nm excitation, 590 emission). The percent inhibition of proliferation was calculated and plotted against control-treated cells at each drug concentration. […] The Hypoxia Cytotoxicity Ratio (HCR) was determined as the ratio of the IC50 of the compound under normoxic conditions vs. hypoxic conditions.
The test system of data set [8] is human H460 lung adenocarcinoma.
Method: as §3
Data set [9] in a line: in vivo. Particulars: female, nude, mouse, iv. The method, then:
In one example, female nude mice (n=10) were inoculated subcutaneously with 15×10^6 human K562 myelogenous leukemia cells in a 1:1 ratio with matrigel on the right flank. Tumor volumes were monitored and calculated using the formula: Tumor volume=(a^2×b/2) where ‘a’ is the smallest diameter and ‘b’ is the largest diameter. Once the established tumors reached approximately 75-150 mm^3 (individual tumor volumes may range from […]) the mice were assigned to the various vehicle control and treatment groups such that the mean tumor volumes in the treated groups were within 10% of the mean tumor weight in the vehicle control group. On the same day (day 1) and days 4, 7, 10, and 13, vinca-alkaloid N-oxide analogs (VCR-NO, VBL-NO) were administered intravenously according to a q3d×5 schedule. Mice were also treated with vehicle (negative control) and the standard agents, vinblastine and vincristine (positive controls). Tumor volumes were recorded three times a week starting when tumors were palpable and including the day of study termination. Animals were monitored for signs of toxicity and body weights were recorded twice a week starting on the first day of treatment and including the day of study termination. […] The mean day of sacrifice were calculated to determine the tumor growth delay and tumor growth inhibition effects of each test article as compared to vehicle control. […] Statistical significance between the treated vs. control groups was evaluated by logrank analysis.

Data set [10] is described as follows: in vivo. Conditions: B6D2F1, mouse, in vivo, iv. On the procedure: as §1, §2
This is another data set of the same source.

For data set [11] the following is noted: 0.6-1 mg/kg iv q3d×5; during the course of treatment.
Method: Body weights were monitored twice weekly and up to 2 weeks following treatment. Mice were also injected iv with 0.6 or 1 mg/kg vincristine using the same q3d×5 schedule as a positive control.
Data set [12] is described as follows: in vivo. Particulars: female, nude, mouse, iv. The source holds these as a separate data set.
Data set [13] is described as follows: Formation of clear solution in aqueous vehicles. In kind it is physicochemical. Particulars: de-ionized water and 5% dextrose/water solutions.
The mark [14] stands for this setting: Grade III-IV, Naïve pts (n = 48).
[15] abbreviates: Grade III-IV, Pre-treated patients (n = 165).

As to `CCc1c2c(nc3ccc(OC(=O)N4CCC(N5CCCCC5)CC4)cc13)-c1cc3c(c(=O)n1C2)COC(=O)[C@]3(O)CC` [CPT-11, 7-ethyl-10[4-(1-piperidino)-1-piperidino]carbonyloxycamptothecin, reference compound], in [1] (setting [14]), the Alopecia entry was “Alopecia 54%”, the “Delayed Diarrhea” value was “Delayed Diarrhea 35%”, the Nausea/Vomiting entry is “Nausea/Vomiting 13%” and the Thrombocytopenia result was “Thrombocytopenia 2%”. Moreover, the “Leukopenia/Neutropenia Toxicity” value in [1] (Grade III-IV, Naïve pts) is 48%. For the same molecule, in data set [1] (setting [15]), the Alopecia result was “Alopecia 53%”, the “Delayed Diarrhea” value was “Delayed Diarrhea 39%”, the Nausea/Vomiting result was “Nausea/Vomiting 22%” and the Thrombocytopenia result is “Thrombocytopenia 3%”. Moreover, in data set [1] (Grade III-IV, Pretreated pts), the “Leukopenia/Neutropenia Toxicity” value is 47%. For the same molecule, in data set [1] (Grade III-IV), the “Documented Infection” value is listed as 5% and the “Neutropenic Fever” value was “Neutropenic Fever 14%”. Besides, the “Anemia Grade III-IV” value in [1] (Naïve pts (n = 48)) is 8%. Moreover, the “Anemia Grade III-IV” value in data set [1] (Pre-treated patients (n = 165)) is on record as 10%. Further, the intent-to-treat response rate in [2] is reported as 12.1%. The “Tumor Growth Delay” value in data set [3] turned out to be 60%.
For the molecule `CC[C@]1(O)C[C@@H]2CN(CCc3c([nH]c4ccccc34)[C@@](C(=O)OC)(c3cc4c(cc3OC)N(C)[C@H]3[C@@](O)(C(=O)OC)[C@H](OC(C)=O)[C@]5(CC)C=CCN6CC[C@]43[C@@H]65)C2)C1` [Vinblastine, vinblastine], the “Median Survival” value in [4] (5 mg/kg i.v. q3d×5) came to 30.8 days; in data set [5] (5 mg/kg i.v. q3d×5) it was 24.3 days. The “Tumor Growth Delay” value in data set [4] (5 mg/kg i.v. q3d×5) is recorded as 149%; in data set [5] (5 mg/kg i.v. q3d×5), 34%. Moreover, the results for the MTD in “in vivo [6]” and in “in vivo [9]” were 5 mg/kg and 2.5 mg/kg, respectively. The IC50 amounted to 20 nM in [7] (read-out: IC50 Air) and 17 nM in [7] (read-out: IC50 Hypoxia). For the same molecule, the “Hypoxia Cytotoxicity Ratio (HCR)” value in data set [8] is given as 1. Besides, the “median day of death” value by setting is: (4 mg/kg ip q3d×5) 10.8 days; (6 mg/kg ip q3d×5) 9.8 days.
Consider `CC[C@]1(O)C[C@H]2CN(CCc3c([nH]c4ccccc34)[C@@](C(=O)OC)(c3cc4c(cc3OC)N(C=O)[C@H]3[C@@](O)(C(=O)OC)[C@H](OC(C)=O)[C@]5(CC)C=CCN6CC[C@]43[C@@H]65)C2)C1` [Vincristine, vincristine], for which the figures for the “Median Survival” value in [4] (1 mg/kg i.v. q3d×5) and in [5] (1 mg/kg i.v. q3d×5) were 20.8 days and 19.6 days, respectively. The figures for the “Tumor Growth Delay” value in [4] (1 mg/kg i.v. q3d×5) and in data set [5] (1 mg/kg i.v. q3d×5) were 54% and 8%, respectively. Further, the MTD in “in vivo [10]” was 1 mg/kg; in the data set “in vivo [6]”, 1 mg/kg; in the data set “in vivo [9]”, 1.5 mg/kg; in “in vivo [12]”, 1.5 mg/kg. Moreover, the body weight loss entry in data set [11] was “significant body weight loss”. For the same molecule, the results for the IC50 in [7] (read-out: IC50 Air) and in data set [7] (read-out: IC50 Hypoxia) were 17 nM and 15 nM, respectively. In data set [8], the “Hypoxia Cytotoxicity Ratio (HCR)” value is 1.1.
Consider Gemcitabine + Cisplatin, for which, in [1] (Grade III-IV), the “Anemia Grade III-IV” value was 25% and 27%; the “Cardiac Dysrhythmia” value is reported as 2.8%; the Dyspnea result is on record as “Dyspnea 7%”; the “Elevated Creatinine” value is on record as “Elevated Creatinine 4.8%”. In [1] (Grade III-IV), the Nausea result was “Nausea 27%”, the Neurohearing entry is “Neurohearing 6%”, the “Neutropenic Sepsis” value was “Neutropenic Sepsis 1%” and the Pulmonary entry is given as “Pulmonary 3%”. In addition, the Vomiting entry in data set [1] (Grade III-IV) is listed as “Vomiting 23%”. Also, in data set [1] (Grade III), the Alopecia is given as 10.5%, the Diarrhea result was “Diarrhea (Grade III) 3%”, the Granulocytopenia result is “Grade III 21.7%” and the Hematuria was 4.5%. Moreover, in [1] (Grade III), the Nausea/Vomiting result is “(Grade III) 22%”, the Neuromotor was 11.5% and the Neutropenia was 41.2%. Besides, in [1] (Grade IV), the Granulocytopenia entry is given as “Grade IV 35.3%” and the Neutropenia is reported as 29.9%.
Consider Liposomal doxorubicin, for which, in data set [1] (human, in vivo, iv), the “Anemia Grade III-IV” value was 9.8%, the Leukopenia entry was “Leukopenia 36%”, the Mucositis result was “Mucositis 5%” and the Nausea/Vomiting entry is “Nausea/Vomiting 15%”. For the same molecule, in data set [1] (human, in vivo, iv), the “Neutropenia Grade IV” value is listed as “Grade IV 6%”, the “Neutropenic Fever” value is recorded as “Neutropenic Fever 11%”, the “Palmar-Plantar Erythrodysesthesia” value is reported as “Erythrodysesthesia 29%” and the “Peripheral Neuropathy” value is 6%. Also, in data set [1] (human, in vivo, iv), the Stomatitis entry is “Stomatitis 14%” and the Thrombocytopenia result is “Thrombocytopenia 3%”.
Turning to Vinblastine N-Oxide Dihydrochloride, the “forms a stable clear solution at” value in data set [13] is “about 20 mg/mL”.
Turning to “gemtuzumab: Mylotarg, Wyeth-Ayerst [reference compound]”, in data set [1] (Grade III-IV), the “Anemia Grade III-IV” value was 47%, the Chills result is “Chills 13%”, the Dyspnea entry was “Dyspnea 9%” and the Fever result was “Fever 15%”. For the same molecule, in data set [1] (Grade III-IV), the Hyperbilirubinemia entry was “Hyperbilirubinemia 23%”, the Hyperglycemia entry is reported as “Hyperglycemia 12%”, the Leukopenia is recorded as 96% and the Nausea result was “Nausea 9%”. For the same molecule, in [1] (Grade III-IV), the Neutropenia is 98%, the “Neutropenic Fever” value is “Neutropenic Fever 7%”, the Pneumonia entry was “Pneumonia 7%” and the Sepsis result is recorded as “Sepsis 16%”. Also, in [1] (Grade III-IV), the Thrombocytopenia result is “Thrombocytopenia 99%”. The “patients with grade III or IV pneumonia” value in [1] (acute myelogenous patients, 9 mg/m^2 IV, two doses 14 days apart) is listed as 7%.
